According to patent US20230174608A1, “Polypeptide Derivative Having Dual Receptor Agonistic Action and Use Thereof” (TIANJIN INSTITUTE OF PHARMACEUTICAL RESEARCH CO., LTD., priority 2020, published 2023):
Where a SMILES comes first, the peptide text is derived from it.

Experiments:
[1] = test system: diet-induced obesity (DIO) mice; assay: DIO model mice, weight after 2 weeks of administration; assay type: in vivo, C57BL/6N mice; conditions: 30 nmol/kg s.c. once a day, 14 days
Source text: Method: C57BL/6N mice were fed with H10060 high-fat diets to obtain diet-induced obesity (DIO) models, and mice in a control group (n=5) were fed with standard diets. One day before the first administration, the mice in the model group were randomly divided into 6 groups according to their weights (within a range of 40.5-50.5 g), i.e., a model control group, a positive control group, and test compound groups (dgc003, dgc004, dgc010, and dgc017), respectively, 5 mice in each group, which were administered once a day by subcutaneous injection. Saline was subcutaneously injected into each mouse in the blank control group and the model control group every day. The administration was performed for 14 days. The positive control drug and the test compounds were administered at a dose of 30 nmol/kg, and the administration volume for each group was 0.005 mL/g weight. The mice were weighed before each administration, and 72-h food intake was weighed every three days.

GLP-1R = biological target: T1, GLP-1R (Homo sapiens, UniProt P43220); assay: GLP-1 receptor-mediated cAMP production in vitro; assay type: cell-based; conditions: HEK293 cell line stably expressing GLP-1R
T1 construct: expressed in transfected cells
Summary of the method: (§1)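 HEK293 cells stably expressing human GLP-1R or GCGR are stimulated with compound for 30 min in the dark in serum-free medium with 0.5 mM IBMX, with test dilutions spanning 1 μM down to 10^−3 nM. cAMP is detected after a 60 min room-temperature reaction as the 665/615 nm ratio.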

GCGR = biological target: T2, GCGR (Homo sapiens, UniProt P47871); assay: GC receptor-mediated cAMP production in vitro; assay type: cell-based; conditions: HEK293 cell line stably expressing GCGR
T2 construct: expressed in transfected cells
Summary of the method: as §1

[2] = test system: glucose loaded normal mice; assay: Glucose loading test on normal mice after single administration; assay type: in vivo, Kunming mice
Summary of the method: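 Male Kunming mice (20-22 g), 5 per group, fasted 6 h, received compound or semaglutide at 30 nmol/kg or saline. Glucose 2.5 g/kg given intragastrically 60 min post-dose; blood glucose measured 30 min after glucose loading.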

T1 sequence (P43220 24-463, species assumed): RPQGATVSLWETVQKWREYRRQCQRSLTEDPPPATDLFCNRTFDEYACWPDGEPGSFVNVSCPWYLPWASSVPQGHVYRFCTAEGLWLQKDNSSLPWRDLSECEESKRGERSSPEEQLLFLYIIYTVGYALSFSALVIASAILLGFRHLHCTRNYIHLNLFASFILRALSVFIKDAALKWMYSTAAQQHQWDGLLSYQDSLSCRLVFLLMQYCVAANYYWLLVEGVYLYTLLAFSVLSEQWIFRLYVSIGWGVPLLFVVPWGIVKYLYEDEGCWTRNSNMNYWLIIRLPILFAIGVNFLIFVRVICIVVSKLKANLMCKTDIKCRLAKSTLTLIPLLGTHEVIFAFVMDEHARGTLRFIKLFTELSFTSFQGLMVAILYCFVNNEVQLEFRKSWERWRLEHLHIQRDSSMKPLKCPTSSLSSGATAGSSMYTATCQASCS
T2 sequence (P47871 26-477, species assumed): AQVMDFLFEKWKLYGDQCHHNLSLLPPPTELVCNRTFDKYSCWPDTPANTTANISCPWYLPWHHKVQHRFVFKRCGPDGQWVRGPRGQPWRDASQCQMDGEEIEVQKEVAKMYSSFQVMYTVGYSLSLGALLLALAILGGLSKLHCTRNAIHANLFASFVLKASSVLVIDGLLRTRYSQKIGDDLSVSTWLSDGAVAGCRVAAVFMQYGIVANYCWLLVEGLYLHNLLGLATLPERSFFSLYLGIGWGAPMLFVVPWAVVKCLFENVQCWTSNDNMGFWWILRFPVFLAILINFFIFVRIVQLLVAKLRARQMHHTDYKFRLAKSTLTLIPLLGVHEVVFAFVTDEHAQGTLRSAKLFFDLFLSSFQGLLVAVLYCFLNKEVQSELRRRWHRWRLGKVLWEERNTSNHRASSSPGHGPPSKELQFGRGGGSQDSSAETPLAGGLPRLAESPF

EC50 (GLP-1R): 0.113 nM
EC50 (GCGR): 5.84 nM
Structure (SMILES): CCCCCCCCCCCCCCCC(=O)N[C@@H](CCC(=O)NCCCC[C@H](NC(=O)[C@H](C)NC(=O)[C@H](C)NC(=O)[C@H](CCCNC(=N)N)NC(=O)[C@H](CCC(=O)O)NC(=O)[C@H](CCC(=O)O)NC(=O)[C@H](CC(C)C)NC(=O)[C@H](Cc1ccc(O)cc1)NC(=O)[C@H](CCCCN)NC(=O)[C@H](CO)NC(=O)[C@H](Cc1ccc(O)cc1)NC(=O)[C@H](CC(=O)O)NC(=O)[C@H](CO)NC(=O)[C@@H](NC(=O)[C@H](Cc1ccccc1)NC(=O)[C@@H](NC(=O)CNC(=O)[C@H](CCC(N)=O)NC(=O)C(C)(C)NC(=O)[C@@H](N)Cc1c[nH]cn1)[C@@H](C)O)[C@@H](C)O)C(=O)N[C@@H](CCC(=O)O)C(=O)N[C@@H](Cc1ccccc1)C(=O)N[C@H](C(=O)N[C@@H](C)C(=O)N[C@@H](Cc1c[nH]c2ccccc12)C(=O)N[C@@H](CC(C)C)C(=O)N[C@@H](CCC(=O)O)C(=O)N[C@@H](C)C(=O)NCC(=O)NCC(N)=O)[C@@H](C)CC)C(=O)O [dgc004] (HELM PEPTIDE1{H.[Aib].Q.G.T.F.T.S.D.Y.S.K.Y.L.E.E.R.A.A.K.E.F.I.A.W.L.E.A.G.G.[am]}|PEPTIDE2{[CCCCCCCCCCCCCCCC(=O)[*:2]].[gGlu]}$PEPTIDE1,PEPTIDE2,20:R3-2:R2$$$V2.0; N-terminus assumed)
Weight decreasing rate by the last administration [1]: 19.9%
Blood glucose reduction rate (%) ([2]; 30 nmol/kg single dose, after glucose loading, versus model control group): 50.24%
Blood glucose level after glucose loading ([2]; 30 nmol/kg single dose, glucose 2.5 g/kg intragastric 60 min after administration, measured 30 min after loading, n=5): 8.46 ± 2.28 mmol/L
Fasting blood glucose level ([2]; normal mice fasted 6 h, 30 nmol/kg group, n=5): 3.42 ± 0.85 mmol/L
